Test results from US20250152675A1, “I-TYPE RECOMBINANT COLLAGEN WITH HIGH TRANSDERMAL ABSORBABILITY, AND USE THEREOF” (XI'AN GIANT BIOGENE TECHNOLOLGY CO., LTD, priority 2022, published 2025).
Residues, ends and D or L forms follow the SMILES beside them.

Assay: Transdermal penetration through ex vivo mouse skin in a single-chamber diffusion cell, content by BCA kit
Format: in vitro ADME, Kunming mice
Conditions: collagen peptide 5 mg/ml in 0.9% NaCl, diffusion area 2.0 cm^2, 37.5° C.
Protocol: 1. Preparation of Mouse Skin Ex Vivo 10 Kunming mice of 20 to 22 g with half male and half […] were used in the experiment. After the mice were killed, the hairs on the abdomen were removed. Then the skin on the hair-removed area was peeled off, stripped of fat and tendons, and rinsed repeatedly with distilled water. After being washed, the mouse skins were rinsed with normal saline, then treated with 10% glycerol, and stored at −20° C. for use (use up within 7 days).
Single-chamber diffusion cell: The effective diffusion area of the diffusion cell is 2.0 cm^2, the volume of the receiving cell is 14 ml, the length of the custom-made stirrer is 1.4 cm, and the receiving solution is 0.9% NaCl solution.
The stored mouse skin was taken out, thawed, washed with normal saline, and sandwiched between the receiving chamber and the supplying chamber, with the medicated side facing the supplying chamber and the skin side facing the receiving chamber. The temperature of the water bath system was adjusted to 37.5° C., and the stirring speed was adjusted to 100 rpm/min. 0.9% NaCl solution pre-warmed at 37° C. was added to the receiving chamber and the air bubbles were exhausted, in order to reduce the interference, the inner surface of the mouse skin was firstly contacted with the receiving solution without medication and all the receiving solution was replaced. Then the 27 collagen peptides synthesized were prepared into 5 mg/ml solutions using 0.9% NaCl respectively, which were injected into the supplying chamber and firmly adhere to the mouse skin respectively. After 24 h, part of the receiving solution was absorbed with a syringe as the sample solution to determine the transdermal amount of collagen peptide.
The BCA kit method was used to determine the polypeptide content in the sample solution. […]

| 24h penetration amount [µg] | Structure (SMILES) |
| --- | --- |
| 2097.44 | CC(C)C[C@H](NC(=O)CNC(=O)[C@H](C)NC(=O)[C@@H](NC(=O)CNC(=O)[C@@H]1CCCN1C(=O)[C@H](CC(C)C)NC(=O)CNC(=O)[C@H](CCCNC(=N)N)NC(=O)[C@H](C)NC(=O)CNC(=O)[C@H](CCC(N)=O)NC(=O)[C@@H]1CCCN1C(=O)CNC(=O)[C@@H]1CCCN1C(=O)[C@@H]1CCCN1C(=O)CNC(=O)[C@H](CCCNC(=N)N)NC(=O)[C@H](CCC(=O)O)NC(=O)CNC(=O)[C@@H]1CCCN1C(=O)[C@H](CCCNC(=N)N)NC(=O)CNC(=O)[C@@H]1CCCN1C(=O)[C@H](CCCCN)NC(=O)CNC(=O)[C@H](C)NC(=O)[C@H](CCC(=O)O)NC(=O)CNC(=O)[C@H](CC(=O)O)NC(=O)[C@H](CC(=O)O)NC(=O)CNC(=O)[C@H](CC(N)=O)NC(=O)[C@H](CCCCN)NC(=O)CN)[C@@H](C)O)C(=O)N1CCC[C@H]1C(=O)O [compound 2] (H-GKNGDDGEAGKPGRPGERGPPGPQGARGLPGTAGLP-OH; N-terminus and C-terminus assumed) |
| 2224.03 | CSCC[C@H](NC(=O)CNC(=O)[C@@H]1CCCN1C(=O)[C@H](CC(C)C)NC(=O)CNC(=O)[C@H](C)NC(=O)[C@@H](NC(=O)CNC(=O)[C@@H]1CCCN1C(=O)[C@H](CC(C)C)NC(=O)CNC(=O)[C@H](CCCNC(=N)N)NC(=O)[C@H](C)NC(=O)CNC(=O)[C@H](CCC(N)=O)NC(=O)[C@@H]1CCCN1C(=O)CNC(=O)[C@@H]1CCCN1C(=O)[C@@H]1CCCN1C(=O)CNC(=O)[C@H](CCCNC(=N)N)NC(=O)[C@H](CCC(=O)O)NC(=O)CN)[C@@H](C)O)C(=O)N[C@@H](CCCCN)C(=O)NCC(=O)N[C@@H](Cc1c[nH]cn1)C(=O)N[C@@H](CCCNC(=N)N)C(=O)NCC(=O)N[C@@H](Cc1ccccc1)C(=O)N[C@@H](CO)C(=O)NCC(=O)N[C@@H](CC(C)C)C(=O)N[C@@H](CC(=O)O)C(=O)NCC(=O)N[C@@H](C)C(=O)N[C@@H](CCCCN)C(=O)O [compound 3] (H-GERGPPGPQGARGLPGTAGLPGMKGHRGFSGLDGAK-OH; N-terminus and C-terminus assumed) |
| 2034.78 | CSCC[C@H](NC(=O)[C@H](CCC(N)=O)NC(=O)CNC(=O)[C@@H]1CCCN1C(=O)[C@H](C)NC(=O)CNC(=O)[C@H](CC(N)=O)NC(=O)[C@H](CCC(=O)O)NC(=O)CNC(=O)[C@@H]1CCCN1C(=O)[C@H](CO)NC(=O)CNC(=O)[C@@H]1CCCN1C(=O)[C@H](CCC(=O)O)NC(=O)CNC(=O)[C@H](CCCCN)NC(=O)[C@@H]1CCCN1C(=O)CNC(=O)[C@H](C)NC(=O)[C@@H]1CCCN1C(=O)CNC(=O)[C@H](C)NC(=O)[C@H](CC(=O)O)NC(=O)CNC(=O)[C@H](CCCCN)NC(=O)[C@H](C)NC(=O)CN)C(=O)NCC(=O)N1CCC[C@H]1C(=O)N[C@@H](CCCNC(=N)N)C(=O)NCC(=O)N[C@@H](CC(C)C)C(=O)N1CCC[C@H]1C(=O)NCC(=O)N[C@@H](CCC(=O)O)C(=O)N[C@@H](CCCNC(=N)N)C(=O)O [compound 4] (H-GAKGDAGPAGPKGEPGSPGENGAPGQMGPRGLPGER-OH; N-terminus and C-terminus assumed) |
| 2123.45 | CSCC[C@H](NC(=O)[C@H](CCC(N)=O)NC(=O)CNC(=O)[C@@H]1CCCN1C(=O)[C@H](C)NC(=O)CNC(=O)[C@H](CC(N)=O)NC(=O)[C@H](CCC(=O)O)NC(=O)CN)C(=O)NCC(=O)N1CCC[C@H]1C(=O)N[C@@H](CCCNC(=N)N)C(=O)NCC(=O)N[C@@H](CC(C)C)C(=O)N1CCC[C@H]1C(=O)NCC(=O)N[C@@H](CCC(=O)O)C(=O)N[C@@H](CCCNC(=N)N)C(=O)NCC(=O)N[C@@H](CCCNC(=N)N)C(=O)N1CCC[C@H]1C(=O)NCC(=O)N[C@@H](C)C(=O)N1CCC[C@H]1C(=O)NCC(=O)N1CCC[C@H]1C(=O)N[C@@H](C)C(=O)NCC(=O)N[C@@H](C)C(=O)N[C@@H](CCCNC(=N)N)C(=O)NCC(=O)N[C@@H](CC(N)=O)C(=O)N[C@@H](CC(=O)O)C(=O)NCC(=O)N[C@@H](C)C(=O)N[C@H](C(=O)O)[C@@H](C)O [compound 5] (H-GENGAPGQMGPRGLPGERGRPGAPGPAGARGNDGAT-OH; N-terminus and C-terminus assumed) |
| 2233.35 | C[C@H](NC(=O)CNC(=O)[C@@H](NC(=O)[C@H](C)NC(=O)CNC(=O)[C@H](CC(=O)O)NC(=O)[C@H](CC(N)=O)NC(=O)CNC(=O)[C@H](CCCNC(=N)N)NC(=O)[C@H](C)NC(=O)CNC(=O)[C@H](C)NC(=O)[C@@H]1CCCN1C(=O)CNC(=O)[C@@H]1CCCN1C(=O)[C@H](C)NC(=O)CNC(=O)[C@@H]1CCCN1C(=O)[C@H](CCCNC(=N)N)NC(=O)CNC(=O)[C@H](CCCNC(=N)N)NC(=O)[C@H](CCC(=O)O)NC(=O)CN)[C@@H](C)O)C(=O)N[C@@H](C)C(=O)NCC(=O)N1CCC[C@H]1C(=O)N1CCC[C@H]1C(=O)NCC(=O)N1CCC[C@H]1C(=O)N[C@H](C(=O)NCC(=O)N1CCC[C@H]1C(=O)N[C@@H](C)C(=O)NCC(=O)N1CCC[C@H]1C(=O)N1CCC[C@H]1C(=O)O)[C@@H](C)O [compound 6] (H-GERGRPGAPGPAGARGNDGATGAAGPPGPTGPAGPP-OH; N-terminus and C-terminus assumed) |
| 2189.90 | CC(C)C[C@H](NC(=O)CNC(=O)[C@@H](NC(=O)[C@@H]1CCCN1C(=O)CNC(=O)[C@@H]1CCCN1C(=O)[C@H](CCC(=O)O)NC(=O)CNC(=O)[C@H](CCCNC(=N)N)NC(=O)[C@H](C)NC(=O)CNC(=O)[C@H](CCCNC(=N)N)NC(=O)[C@H](CCCCN)NC(=O)CNC(=O)[C@H](CCC(=O)O)NC(=O)[C@H](CCC(=O)O)NC(=O)CNC(=O)[C@H](C)NC(=O)[C@@H]1CCCN1C(=O)CNC(=O)[C@@H]1CCCN1C(=O)[C@@H]1CCCN1C(=O)CNC(=O)[C@H](CCC(N)=O)NC(=O)[C@@H](NC(=O)CNC(=O)[C@@H](NC(=O)[C@@H]1CCCN1C(=O)CN)C(C)C)C(C)C)[C@@H](C)O)C(=O)N1CCC[C@H]1C(=O)NCC(=O)N1CCC[C@H]1C(=O)N1CCC[C@H]1C(=O)NCC(=O)N[C@@H](CCC(=O)O)C(=O)N[C@@H](CCCNC(=N)N)C(=O)O [compound 7] (H-GPVGVQGPPGPAGEEGKRGARGEPGPTGLPGPPGER-OH; N-terminus and C-terminus assumed) |
| 2013.46 | CC(C)C[C@H](NC(=O)CNC(=O)[C@@H](NC(=O)[C@@H]1CCCN1C(=O)CNC(=O)[C@@H]1CCCN1C(=O)[C@H](CCC(=O)O)NC(=O)CNC(=O)[C@H](CCCNC(=N)N)NC(=O)[C@H](C)NC(=O)CN)[C@@H](C)O)C(=O)N1CCC[C@H]1C(=O)NCC(=O)N1CCC[C@H]1C(=O)N1CCC[C@H]1C(=O)NCC(=O)N[C@@H](CCC(=O)O)C(=O)N[C@@H](CCCNC(=N)N)C(=O)NCC(=O)NCC(=O)N1CCC[C@H]1C(=O)NCC(=O)N[C@@H](CO)C(=O)N[C@@H](CCCNC(=N)N)C(=O)NCC(=O)N[C@@H](Cc1ccccc1)C(=O)N1CCC[C@H]1C(=O)NCC(=O)N[C@@H](C)C(=O)N[C@@H](CC(=O)O)C(=O)NCC(=O)N[C@H](C(=O)N[C@@H](C)C(=O)NCC(=O)N1CCC[C@H]1C(=O)N[C@@H](CCCCN)C(=O)O)C(C)C [compound 8] (H-GARGEPGPTGLPGPPGERGGPGSRGFPGADGVAGPK-OH; N-terminus and C-terminus assumed) |
| 2290.34 | CSCC[C@H](NC(=O)[C@@H](NC(=O)CNC(=O)[C@H](C)NC(=O)[C@H](CCC(N)=O)NC(=O)CNC(=O)[C@H](CCCNC(=N)N)NC(=O)[C@H](C)NC(=O)CNC(=O)[C@@H]1CCCN1C(=O)[C@@H]1CCCN1C(=O)CNC(=O)[C@@H]1CCCN1C(=O)[C@@H]1CCCN1C(=O)CNC(=O)[C@@H]1CCCN1C(=O)[C@H](CCCNC(=N)N)NC(=O)CN)C(C)C)C(=O)NCC(=O)N[C@@H](Cc1ccccc1)C(=O)N1CCC[C@H]1C(=O)NCC(=O)N1CCC[C@H]1C(=O)N[C@@H](CCCCN)C(=O)NCC(=O)N[C@@H](C)C(=O)N[C@@H](C)C(=O)NCC(=O)N[C@@H](CCC(=O)O)C(=O)N1CCC[C@H]1C(=O)NCC(=O)N[C@@H](CCCCN)C(=O)N[C@@H](C)C(=O)NCC(=O)N[C@@H](CCC(=O)O)C(=O)N[C@@H](CCCNC(=N)N)C(=O)O [compound 10] (H-GRPGPPGPPGARGQAGVMGFPGPKGAAGEPGKAGER-OH; N-terminus and C-terminus assumed) |
| 2576.34 | CC(C)[C@H](NC(=O)[C@H](C)NC(=O)CNC(=O)[C@@H]1CCCN1C(=O)[C@@H]1CCCN1C(=O)CNC(=O)[C@@H]1CCCN1C(=O)[C@@H](NC(=O)CNC(=O)[C@H](CCCNC(=N)N)NC(=O)[C@H](CCC(=O)O)NC(=O)CNC(=O)[C@H](C)NC(=O)[C@H](CCCCN)NC(=O)CNC(=O)[C@@H]1CCCN1C(=O)[C@H](CCC(=O)O)NC(=O)CNC(=O)[C@H](C)NC(=O)[C@H](C)NC(=O)CNC(=O)[C@H](CCCCN)NC(=O)[C@@H]1CCCN1C(=O)CNC(=O)[C@@H]1CCCN1C(=O)[C@H](Cc1ccccc1)NC(=O)CN)C(C)C)C(=O)NCC(=O)N1CCC[C@H]1C(=O)N[C@@H](C)C(=O)NCC(=O)N[C@@H](CCCCN)C(=O)N[C@@H](CC(=O)O)C(=O)NCC(=O)N[C@@H](CCC(=O)O)C(=O)N[C@@H](C)C(=O)O [compound 11] (H-GFPGPKGAAGEPGKAGERGVPGPPGAVGPAGKDGEA-OH; N-terminus and C-terminus assumed) |
